Experimental data reported in the NIST ThermoML archive (doi:10.1021/acs.jced.7b00429).
± gives the expanded uncertainty stated by the source.

Experiment: xn = mol fraction of the nth substance listed
Details: 100 kPa, Liquid; for viscosity: Falling or rolling sphere viscometry; for speed of sound: Frequency=3 MHz, Single path-length method; for mass density: Vibrating tube method

CCn1cc[n+](C)c1.O=S(=O)([O-])C(F)(F)F [1-ethyl-3-methylimidazolium trifluoromethanesulfonate] + CC#N
Details | mass density [kg/m3] | speed of sound [m/s] | viscosity [mPa·s]
298.15 K, x1 = 0.1026 | 964.8 ± 2.1 | 1309.2 ± 10 | 0.85 ± 0.26
298.15 K, x1 = 0.2053 | 1080.98 ± 2.1 | 1337.4 ± 10 | 1.88 ± 0.56
298.15 K, x1 = 0.3044 | 1158.48 ± 2.1 | 1360.9 ± 10 | 2.99 ± 0.9
298.15 K, x1 = 0.3948 | 1210.19 ± 2.1 | 1377.9 ± 10 | 4.51 ± 1.4
298.15 K, x1 = 0.498 | 1256.19 ± 2.1 | 1394.4 ± 10 | 7.44 ± 2.2
298.15 K, x1 = 0.595 | 1289.82 ± 2.2 | 1408 ± 10 | 10.9 ± 3.3
298.15 K, x1 = 0.6936 | 1317.8 ± 2.3 | 1418.6 ± 10 | 15.92 ± 4.8
298.15 K, x1 = 0.801 | 1342.54 ± 2.4 | 1427.1 ± 10 | 24.05 ± 7.2
298.15 K, x1 = 0.9005 | 1362.36 ± 2.4 | 1432.6 ± 10 | 33.72 ± 10
298.15 K, x1 = 1 | 1379.91 ± 2.5 | 1436 ± 10 | 45.67 ± 14
303.15 K, x1 = 0.1026 | 959.72 ± 2.1 | 1292 ± 10 | 0.8 ± 0.24
303.15 K, x1 = 0.2053 | 1076.24 ± 2.1 | 1321.9 ± 10 | 1.82 ± 0.55
303.15 K, x1 = 0.3044 | 1153.77 ± 2.1 | 1346.7 ± 10 | 2.74 ± 0.82
303.15 K, x1 = 0.3948 | 1205.75 ± 2.1 | 1364.5 ± 10 | 4.13 ± 1.2
303.15 K, x1 = 0.498 | 1251.68 ± 2.1 | 1381.5 ± 10 | 6.64 ± 2
303.15 K, x1 = 0.595 | 1285.38 ± 2.2 | 1395.5 ± 10 | 9.46 ± 2.8
303.15 K, x1 = 0.6936 | 1313.46 ± 2.3 | 1406.6 ± 10 | 13.8 ± 4.1
303.15 K, x1 = 0.801 | 1338.3 ± 2.3 | 1415.2 ± 10 | 20.32 ± 6.1
303.15 K, x1 = 0.9005 | 1358.19 ± 2.4 | 1421.3 ± 10 | 27.94 ± 8.4
303.15 K, x1 = 1 | 1375.71 ± 2.5 | 1425.4 ± 10 | 38.31 ± 12
308.15 K, x1 = 0.1026 | 954.64 ± 2.1 | 1274.9 ± 10 | 0.75 ± 0.23
308.15 K, x1 = 0.2053 | 1071.2 ± 2.1 | 1306.5 ± 10 | 1.65 ± 0.5
308.15 K, x1 = 0.3044 | 1149.07 ± 2.1 | 1332.5 ± 10 | 2.52 ± 0.76
308.15 K, x1 = 0.3948 | 1200.93 ± 2.1 | 1351.3 ± 10 | 3.76 ± 1.1
308.15 K, x1 = 0.498 | 1247.19 ± 2.1 | 1368.7 ± 10 | 5.95 ± 1.8
308.15 K, x1 = 0.595 | 1280.97 ± 2.2 | 1383.2 ± 10 | 8.41 ± 2.5
308.15 K, x1 = 0.6936 | 1309.13 ± 2.3 | 1394.7 ± 10 | 12.08 ± 3.6
308.15 K, x1 = 0.801 | 1334.18 ± 2.3 | 1403.4 ± 10 | 17.54 ± 5.3
308.15 K, x1 = 0.9005 | 1354.05 ± 2.4 | 1409.7 ± 10 | 23.87 ± 7.2
308.15 K, x1 = 1 | 1371.51 ± 2.5 | 1414.3 ± 10 | 32.38 ± 9.7
313.15 K, x1 = 0.1026 | 949.54 ± 2.1 | 1257.9 ± 10 | 0.72 ± 0.22
313.15 K, x1 = 0.2053 | 1066.32 ± 2.1 | 1291.1 ± 10 | 1.54 ± 0.46
313.15 K, x1 = 0.3044 | 1144.37 ± 2.1 | 1318.3 ± 10 | 2.34 ± 0.7
313.15 K, x1 = 0.3948 | 1196.39 ± 2.1 | 1338.2 ± 10 | 3.46 ± 1
313.15 K, x1 = 0.498 | 1242.71 ± 2.1 | 1356 ± 10 | 5.37 ± 1.6
313.15 K, x1 = 0.595 | 1276.68 ± 2.2 | 1371.1 ± 10 | 7.51 ± 2.3
313.15 K, x1 = 0.6936 | 1304.82 ± 2.2 | 1382.9 ± 10 | 10.66 ± 3.2
313.15 K, x1 = 0.801 | 1330.05 ± 2.3 | 1391.6 ± 10 | 15.27 ± 4.6
313.15 K, x1 = 0.9005 | 1349.89 ± 2.4 | 1398.1 ± 10 | 20.58 ± 6.2
313.15 K, x1 = 1 | 1367.36 ± 2.5 | 1403 ± 10 | 27.68 ± 8.3
318.15 K, x1 = 0.1026 | 944.58 ± 2.1 | 1241 ± 10 | 0.68 ± 0.2
318.15 K, x1 = 0.2053 | 1061.52 ± 2.1 | 1275.8 ± 10 | 1.42 ± 0.43
318.15 K, x1 = 0.3044 | 1139.57 ± 2.1 | 1304.3 ± 10 | 2.16 ± 0.65
318.15 K, x1 = 0.3948 | 1191.77 ± 2.1 | 1325.1 ± 10 | 3.17 ± 0.95
318.15 K, x1 = 0.498 | 1238.2 ± 2.1 | 1343.4 ± 10 | 4.87 ± 1.5
318.15 K, x1 = 0.595 | 1272.32 ± 2.2 | 1359 ± 10 | 6.75 ± 2
318.15 K, x1 = 0.6936 | 1300.45 ± 2.2 | 1371.3 ± 10 | 9.46 ± 2.8
318.15 K, x1 = 0.801 | 1325.89 ± 2.3 | 1380.2 ± 10 | 13.39 ± 4
318.15 K, x1 = 0.9005 | 1345.74 ± 2.4 | 1387.1 ± 10 | 17.89 ± 5.4
318.15 K, x1 = 1 | 1363.21 ± 2.5 | 1392.7 ± 10 | 23.86 ± 7.2
323.15 K, x1 = 0.1026 | 939.47 ± 2.1 | 1224.1 ± 10 | 0.65 ± 0.2
323.15 K, x1 = 0.2053 | 1056.45 ± 2.1 | 1260.7 ± 10 | 1.38 ± 0.41
323.15 K, x1 = 0.3044 | 1134.77 ± 2.1 | 1290.5 ± 10 | 2.01 ± 0.6
323.15 K, x1 = 0.3948 | 1187.31 ± 2.1 | 1312.2 ± 10 | 2.91 ± 0.87
323.15 K, x1 = 0.498 | 1233.78 ± 2.1 | 1330.9 ± 10 | 4.43 ± 1.3
323.15 K, x1 = 0.595 | 1267.96 ± 2.2 | 1347.1 ± 10 | 5.96 ± 1.8
323.15 K, x1 = 0.6936 | 1296.17 ± 2.2 | 1359.7 ± 10 | 8.27 ± 2.5
323.15 K, x1 = 0.801 | 1321.8 ± 2.3 | 1368.6 ± 10 | 11.66 ± 3.5
323.15 K, x1 = 0.9005 | 1341.58 ± 2.4 | 1375.7 ± 10 | 15.49 ± 4.6
323.15 K, x1 = 1 | 1359.07 ± 2.5 | 1381.7 ± 10 | 20.75 ± 6.2
